Results from patent US20240043439A1, “COMPOUNDS AS C5AR INHIBITORS” (Kira Pharmaceuticals (Suzhou) Ltd., priority 2020, published 2024).

Assays:
[1] = molecular target: human C5a receptor (C5aR) (Homo sapiens (Human), UniProt P21730); test: Inhibition of C5a-C5aR binding (biotinylated human C5a, U937/C5aR cells, FACS)
Protocol: U937 cells were originally obtained from the American Type Culture Collection (ATCC) and transfected with human C5a receptor (C5aR). U937/C5aR cells were cultured at 37° C., 5% CO2 in RPMI1640 (Gibco) supplemented with 10% FBS (Gibco) and 350 µg/ml Geneticin (Gibco) and passaged every 3 days to maintain the density range from […] to 2×10^6 cells/ml.
Human C5a biotinylation was performed according to the procedure provided by manufacturer (Thermo Scientific, A39257). 10 mM solution of Sulfo-NHS-LC-Biotin was prepared by adding 180μl ultrapure H2O to the 1 mg vial immediately. 12 μl 10 mM biotin reagent was added to […] human C5a solution, gently pipetted for 3 seconds, and incubated on ice for 2 hours. Amicon ultra-0.5 centrifuge filter device (Millipore, UFC5003BK) was pre-rinsed with Milli-Q H2O, centrifuged at 14000 g for 5 min immediately before use. Up to […] sample (diluted by PBS) was added to the device and capped. The device was spinned at 14000 g for approximately 5 min. 250 μl PBS was added to the filter device, spinned at 14000 g for 5 min, and repeatedly washed 6 times. The filter device was separated from the microcentrifuge tube and placed upside down in a clean microcentrifuge tube, spinned for 2 min at 1000 g to transfer the concentrated sample from the device to the tube.
U937/C5aR cells were collected and washed twice by PBS, cells were suspended in PBS+0.1% BSA buffer at the density of 3×10^6 cells/ml. 100 μl cell suspension was added to a 96 well microplate. 50 μl compound diluted in assay buffer and 50 μl biotinylated ligand human C5a (30 nM) were added to corresponding wells in order and the plate was incubated on ice for 120 min and then centrifuged at 1000 rpm for 3-5 min at 4° C. Supernatant was removed and cells were washed by pre-cold PBS twice. 100 μl FITC conjugated streptavidin was added to cells, incubated on ice for another 30 min, and then centrifuged at 1000 rpm for 3-5 min at 4° C. Supernatant was removed and cells were washed by pre-cold PBS twice. 150 μl PBS was added to suspend the cells and signals were detected by FACS (Beckman, Cytoflex).

C5aR = C5aR (Homo sapiens (Human), UniProt P21730); test: Calcium mobilization (U937/C5aR or HEK293/C5aR cells, FLIPR); format: cell-based; settings: agonist human C5a at EC80, FLIPR
In short: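 U937 or HEK293 cells expressing human C5aR, plated overnight, then preincubated 60 min with compound. After Fluo-4 Direct dye loading (50 min at 37 °C, 10 min at room temperature), intracellular calcium rise on FLIPR was triggered by human C5a agonist at EC80.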

C5aR, sequence (P21730 whole entry): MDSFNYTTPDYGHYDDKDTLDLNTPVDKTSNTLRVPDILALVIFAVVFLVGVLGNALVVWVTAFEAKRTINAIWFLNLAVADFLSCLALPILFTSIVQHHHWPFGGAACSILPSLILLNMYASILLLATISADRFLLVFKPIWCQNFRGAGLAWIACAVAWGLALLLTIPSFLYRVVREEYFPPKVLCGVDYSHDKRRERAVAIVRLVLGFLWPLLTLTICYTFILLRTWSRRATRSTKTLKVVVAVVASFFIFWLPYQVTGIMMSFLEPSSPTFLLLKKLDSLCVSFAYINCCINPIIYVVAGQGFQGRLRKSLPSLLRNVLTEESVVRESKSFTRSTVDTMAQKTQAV
human C5a receptor (C5aR), sequence (P21730 whole entry): as above

| SMILES | IC50 [1] [µM] | IC50 (C5aR) [µM] |
| --- | --- | --- |
| Cc1ncc(NC(=O)[C@H]2C[C@H]3CCC[C@H]3N(C(=O)c3c(C)cccc3F)[C@H]2c2ccc(NC3CCCC3)cc2)cn1 (racemic) [Compound 58, cis-2-(4-(cyclopentylamino)phenyl)-1-(2-fluoro-6-methylbenzoyl)-N-(2-methylpyrimidin-5-yl)octahydro-1H-cyclopenta[b]pyridine-3-carboxamide] | 0.05 to 0.5 | 0.05 to 0.5 |
| Cc1ccc(NC(=O)[C@H]2CCCN(S(=O)(=O)c3ccccc3C(F)(F)F)[C@H]2c2ccc(NC3CCCC3)cc2)cc1C(F)(F)F [Compound 28, (2R,3S)-2-(4-(cyclopentylamino)phenyl)-N-(4-methyl-3-(trifluoromethyl)phenyl)-1-((2-(trifluoromethyl)phenyl)sulfonyl)piperidine-3-carboxamide] | 2 to 5 | 2 to 10 |
| Cc1cccc(F)c1C(=O)N1[C@@H]2CCC[C@@H]2C[C@H](C(=O)NC2CCOCC2)[C@@H]1c1ccc(NC2CCCC2)cc1 [Compound 52, (2R,3S,4aR,7aR)-2-(4-(cyclopentylamino)phenyl)-1-(2-fluoro-6-methylbenzoyl)-N-(tetrahydro-2H-pyran-4-yl)octahydro-1H-cyclopenta[b]pyridine-3-carboxamide] | 2 to 5 | 2 to 10 |
| Cc1cccc(F)c1C(=O)N1[C@@H]2CCC[C@@H]2C[C@H](C(=O)Nc2ccc(F)c(F)c2)[C@@H]1c1ccc(NC2CCCC2)cc1 (relative stereo) [Compound 65, cis-2-(4-(cyclopentylamino)phenyl)-N-(3,4-difluorophenyl)-1-(2-fluoro-6-methylbenzoyl)octahydro-1H-cyclopenta[b]pyridine-3-carboxamide] | 0.05 to 0.5 | 0.05 to 0.5 |
| Cc1ccc(NC(=O)[C@H]2CCCN(S(=O)(=O)Cc3ccccc3)[C@H]2c2ccc(NC3CCCC3)cc2)cc1C(F)(F)F [Compound 40, (2R,3S)-1-(benzylsulfonyl)-2-(4-(cyclopentylamino)phenyl)-N-(4-methyl-3-(trifluoromethyl)phenyl)piperidine-3-carboxamide] | < 0.05 | 2 to 10 |
| Cc1ccc(NC(=O)[C@H]2CCCN(S(=O)(=O)c3cc(F)ccc3C)[C@H]2c2ccc(NC3CCCC3)cc2)cc1C(F)(F)F [Compound 17, (2R,3S)-2-(4-(cyclopentylamino)phenyl)-1-((5-fluoro-2-methylphenyl)sulfonyl)-N-(4-methyl-3-(trifluoromethyl)phenyl)piperidine-3-carboxamide] | 0.5 to 2 | 2 to 10 |
| Cc1cccc(F)c1C(=O)N1C2CCC[C@@H]2C[C@H](C(=O)Nc2cccc(Cl)c2)[C@@H]1c1ccc(NC2CCCC2)cc1 (relative stereo) [Compound 55, cis-N-(3-chlorophenyl)-2-(4-(cyclopentylamino)phenyl)-1-(2-fluoro-6-methylbenzoyl)octahydro-1H-cyclopenta[b]pyridine-3-carboxamide] | 0.05 to 0.5 | 0.5 to 2 |
| Cc1ccc(NC(=O)[C@H]2CCCN(S(=O)(=O)c3ccccc3Br)[C@H]2c2ccc(NC3CCCC3)cc2)cc1C(F)(F)F [Compound 27, (2R,3S)-1-((2-bromophenyl)sulfonyl)-2-(4-(cyclopentylamino)phenyl)-N-(4-methyl-3-(trifluoromethyl)phenyl)piperidine-3-carboxamide] | 2 to 5 | 2 to 10 |
| Cc1ccc(NC(=O)[C@H]2CCCN(C(=O)c3c(C)noc3C)[C@H]2c2ccc(NC3CCCC3)cc2)cc1C(F)(F)F [Compound 190, (2R,3S)-2-(4-(cyclopentylamino)phenyl)-1-(3,5-dimethylisoxazole-4-carbonyl)-N-(4-methyl-3-(trifluoromethyl)phenyl)piperidine-3-carboxamide] | 0.5 to 2 | 2 to 10 |
| Cc1ccc(NC(=O)[C@H]2CCCN(S(=O)(=O)c3ccccc3Cl)[C@H]2c2ccc(NC3CCCC3)cc2)cc1C(F)(F)F [Compound 26, (2R,3S)-1-((2-chlorophenyl)sulfonyl)-2-(4-(cyclopentylamino)phenyl)-N-(4-methyl-3-(trifluoromethyl)phenyl)piperidine-3-carboxamide] | 2 to 5 | > 10 |
| Cc1ccc(NC(=O)[C@H]2C[C@H]3CCC[C@H]3N(C(=O)c3c(C)cccc3F)[C@H]2c2ccc(NC3CCCC3)cc2)cn1 (racemic) [Compound 63, cis-2-(4-(cyclopentylamino)phenyl)-1-(2-fluoro-6-methylbenzoyl)-N-(6-methylpyridin-3-yl)octahydro-1H-cyclopenta[b]pyridine-3-carboxamide] | < 0.05 | 0.5 to 2 |
| Cc1cccc(F)c1C(=O)N1[C@@H]2CCC[C@@H]2C[C@H](C(=O)Nc2ccc(F)c(C(F)(F)F)c2)[C@@H]1c1ccc(NC2CCCC2)cc1 (relative stereo) [Compound 61, cis-2-(4-(cyclopentylamino)phenyl)-N-(4-fluoro-3-(trifluoromethyl)phenyl)-1-(2-fluoro-6-methylbenzoyl)octahydro-1H-cyclopenta[b]pyridine-3-carboxamide] | 2 to 5 | 2 to 10 |
| Cc1ccc(NC(=O)[C@H]2CCCN(S(=O)(=O)c3cccc(F)c3C)[C@H]2c2ccc(NC3CCCC3)cc2)cc1C(F)(F)F [Compound 18, (2R,3S)-1-((3-fluoro-2-methylphenyl)sulfonyl)-2-(4-(cyclopentylamino)phenyl)-N-(4-methyl-3-(trifluoromethyl)phenyl)piperidine-3-carboxamide] | 2 to 5 | > 10 |
| Cc1ccc(C)c(S(=O)(=O)N2CCC[C@H](C(=O)Nc3ccc(C)c(C(F)(F)F)c3)[C@@H]2c2ccc(NC3CCCC3)cc2)c1 [Compound 10, (2R,3S)-2-(4-(cyclopentylamino)phenyl)-1-((2,5-dimethylphenyl)sulfonyl)-N-(4-methyl-3-(trifluoromethyl)phenyl)piperidine-3-carboxamide] | 0.5 to 2 | > 10 |
| Cc1cccc(F)c1C(=O)N1C2CCC[C@@H]2C[C@H](C(=O)Nc2ccnc(C(F)(F)F)c2)[C@@H]1c1ccc(NC2CCCC2)cc1 (relative stereo) [Compound 79, cis-2-(4-(cyclopentylamino)phenyl)-1-(2-fluoro-6-methylbenzoyl)-N-(2-(trifluoromethyl)pyridin-4-yl)octahydro-1H-cyclopenta[b]pyridine-3-carboxamide] | 2 to 5 | 2 to 10 |
| Cc1ccc(NC(=O)[C@H]2CCCN(S(=O)(=O)c3ccccc3OC(F)(F)F)[C@H]2c2ccc(NC3CCCC3)cc2)cc1C(F)(F)F [Compound 24, (2R,3S)-2-(4-(cyclopentylamino)phenyl)-N-(4-methyl-3-(trifluoromethyl)phenyl)-1-((2-(trifluoromethoxy)phenyl)sulfonyl)piperidine-3-carboxamide] | 2 to 5 | > 10 |
| Cc1ccc(NC(=O)[C@H]2CCCN(c3ncnc4cccnc34)[C@H]2c2ccc(NC3CCCC3)cc2)cc1C(F)(F)F [Compound 161, (2R,3S)-2-(4-(cyclopentylamino)phenyl)-N-(4-methyl-3-(trifluoromethyl)phenyl)-1-(pyrido[3,2-d]pyrimidin-4-yl)piperidine-3-carboxamide] | 0.05 to 0.5 | 2 to 10 |
| Cc1ccc(NC(=O)[C@H]2CCCN(S(=O)(=O)c3ccccc3)[C@H]2c2ccc(NC3CCCC3)cc2)cc1C(F)(F)F [Compound 34, (2R,3S)-2-(4-(cyclopentylamino)phenyl)-N-(4-methyl-3-(trifluoromethyl)phenyl)-1-(phenylsulfonyl)piperidine-3-carboxamide] | 2 to 5 | > 10 |
| Cc1cccc(F)c1C(=O)N1[C@@H]2CCC[C@@H]2C[C@H](C(=O)Nc2ccc3ncsc3c2)[C@@H]1c1ccc(NC2CCCC2)cc1 (racemic) [Compound 69, cis-N-(benzo[d]thiazol-6-yl)-2-(4-(cyclopentylamino)phenyl)-1-(2-fluoro-6-methylbenzoyl)octahydro-1H-cyclopenta[b]pyridine-3-carboxamide] | 0.05 to 0.5 | 2 to 10 |
| Cc1ccc(NC(=O)C2C[C@@H]3CCC[C@@H]3N(C(=O)c3c(C)cccc3F)C2c2ccc(NC3CCCC3)cc2)cc1P(C)(C)=O (relative stereo) [Compound 76, cis-2-(4-(cyclopentylamino)phenyl)-N-(3-(dimethylphosphoryl)-4-methylphenyl)-1-(2-fluoro-6-methylbenzoyl)octahydro-1H-cyclopenta[b]pyridine-3-carboxamide] | 2 to 5 | 2 to 10 |
